In data set [1] the target is T1, rat vasopressin V1a receptor (Rattus norvegicus, UniProt P30560).
T1 construct: V1a receptor fractions derived from rat hepatic membrane; from tissue; host or cells: rat liver (hepatic membrane)
The data set is described as follows: Binding inhibition test for rat V1a receptor (3H-AVP, rat hepatic membrane). The settings on record: inhibition of 3H-AVP binding, rat hepatic membrane V1a receptor fractions, 4° C., 2 hours; read-out: Binding affinity rV1a (IC50). The method, then: (§1) Various compounds were studied in binding affinities for vasopressin receptors with an indicator of binding inhibition of rat vasopressin V1a receptor and vasopressin V2 receptor of ^3H-arginine vasopressin (AVP) (NET800, available from PerkinElmer Inc., Life Sciences).
(1) Binding Inhibition Test for Rat V1a Receptor (rV1aR)
50 μg of V1a receptor fractions derived from rat hepatic membrane were diluted with a reaction solution (100 mM Tris-HCl (pH 8.0), 0.1% BSA, 5 mM MgCl2, 1 mM EDTA) and added to each well of a 96-well plate. A compound was added to each well in various concentrations (0.3 nM to 100 nM), and ^3H-AVP was added thereto in the range of 1 nM to 3 nM. Reactions were carried out at 4° C. for 2 hours on the plate. Via receptor fractions were collected with a 96-well glass filter (Unifilter GF/B) after the reactions and washed with a washing solution (10 mM Tris-HCl (pH 8.0), 5 mM MgCl2, 1 mM EDTA) three times, and then the radioactivity of ^3H-AVP was measured with a scintillation counter.
(§2) ^3H-AVP binding rate in the presence of a compound was calculated by the following equation. Binding rate (%)=(B−NSB)/(TB−NSB)×100 (B: Binding amount of ^3H-AVP in the presence of each compound, NSB: Binding amount of ^3H-AVP in the presence of 1 μM of unlabeled AVP, TB: Binding amount of ^3H-AVP in the absence of 1 μM of unlabeled AVP)

Data set [2] has as its target T2, rat vasopressin V2 receptor (Rattus norvegicus, UniProt Q00788).
T2 construct: expressed in transfected cells; host or cells: CHO cells (rV2R-CHO)
Nature of the data set: Binding inhibition test for rat V2 receptor (3H-AVP, rV2R-CHO cells). The conditions noted are these: inhibition of 3H-AVP binding, 4° C., 2 hours, read-out: Binding affinity rV2 (IC50). How it is done:
as §1
(2) Binding Inhibition Test for Rat V2 Receptor (rV2R)
Rat V2 receptor-expressed CHO cells (rV2R—CHO) were incubated on 10% FBS-containing DMEM/F12 in a 24-well plate, and each cell was washed with D-PBS twice. A reaction solution (D-PBS containing 0.1% BSA and 0.05% sodium azide) comprising a compound in various concentrations (0.3 nM to 100 nM) was added to each well, and a certain amount of ^3H-AVP was added thereto (100-fold dilution). Reactions were carried out at 4° C. for 2 hours on the plate. Then, each well was washed with D-PBS twice and 0.1N NaOH was added to each well. The cells were collected, and the radioactivity of ^3H-AVP was measured with a scintillation counter.
as §2

A short description of data set [3]: Metabolic stability test in human liver microsomes. The format is in vitro ADME. The settings on record: pH 7.4; human liver microsomes 1 mg/mL, test compound 1 μmol/L, NADPH and NADH, 37° C., n = 4; read-out: CLint (μL/min/mg) mean ± SD. How it is done: Reaction System and Incubation
According to methods of Obach and Jones, et al. (methods described in R. S. Obach, Drug Metab. Dispos. 1999 (27): 1350-1359 and H. Jones and J. B. Houston, Drug Metab. Dispos. 2004 (32): 973-982), the reaction system shown below was prepared and metabolic stabilities of test compounds (the present compounds and, tolvaptan) were evaluated using the reaction system shown below. Human liver microsomes purchased from Corning Inc. were used. Test compounds were dissolved in DMSO at the concentration of 10 mmol/L and then diluted with acetonitrile to prepare a 100 μmol/L solution for use in the test. The 100 μmol/L solutions were used in the experiment.
Human liver microsome 1 mg/mL
Co-factor (NADPH and NADH) 1 mmol/L each
Magnesium chloride 5 mmol/L
100 mmol/L Potassium phosphate buffer (pH 7.4)
The reaction mixture without co-factors was pre-incubated at 37° C. for 5 minutes, and then the reaction was initiated by the addition of the co-factors. The mixture was incubated for 0, 5, 10, 20, 30, and 60 minutes after the addition of the co-factors. An aliquot of the reaction mixture was removed and added to a methanol solution containing an internal standard (IS) and mixed to terminate the reaction at each predetermined time.
After the reaction was terminated, the mixture was separated by centrifugation and the supernatant was injected into a liquid chromatograph-tandem mass spectrometer (LC-MS/MS) to measure unchanged substances remained in the reaction system. The mass spectrometer was operated in a positive ion mode of the electrospray ionization (ESI) method. Unchanged substances and the IS were detected by multiple reaction monitoring (MRM) transitions using selected precursor and product ions set.
The remaining ratios of test compounds were calculated by the following equation. Remaining ratio=(Peak area ratio of a test compound to IS at t minutes after incubation)÷(Peak area ratio of a test compound to IS at 0 minute)
The slope of X-axis (the incubation time) and Y-axis (logarithm of the remaining ratio) was calculated by a non-linear least square method. Hepatic intrinsic clearance (CLint) was calculated by the following equation. CLint(μL/min/mg)=−(Slope(min^−1))÷1(mg/mL)×1000
A general note: Microsomes from liver hold many membrane-bound enzymes, among them those of drug oxidation.

The nature of data set [4]: Pharmacokinetics study in mice, single oral dose. In kind it is in vivo. The conditions noted are these: mouse; male ICR mice, single-dose oral administration of 30 mg/kg, plasma. How it is done: A pharmacokinetics (PK) study was performed using male ICR mice to compare the oral absorption properties of the present compounds with tolvaptan. A test compound was suspended in a 1% hydroxypropyl methylcellulose (HPMC) solution to be adjusted to the concentration of 4.5 mg/mL. The present compounds were used as the forms obtained in the above examples (including the amorphous form) for a test compound, or used after spray drying, if needed.
Male ICR mice (7-week old) were freely fed food and water and weighed on an electronic scale. Then, a test compound was orally administered at the dose of 30 mg/kg […]. After the oral administration, blood was collected from the abdominal vena cava under isoflurane anesthesia using a 1 mL heparinized syringe with a 26 G injection needle. Blood was separated by centrifugation at 4° C., 3000 rpm for 10 minutes to give plasma in a supernatant. The plasma concentration of a test compound was measured by LC-MS/MS.
The following PK parameters were calculated using the mean plasma concentrations of unchanged substances obtained from two animals at each time point.
Cmax: Maximum plasma concentration (μg/mL)
tmax: Time-to-maximum plasma concentration (h)
AUCinf: Area under the plasma concentration-time curve from administration to infinite time (μg h/mL)

T1 sequence (P30560 whole entry): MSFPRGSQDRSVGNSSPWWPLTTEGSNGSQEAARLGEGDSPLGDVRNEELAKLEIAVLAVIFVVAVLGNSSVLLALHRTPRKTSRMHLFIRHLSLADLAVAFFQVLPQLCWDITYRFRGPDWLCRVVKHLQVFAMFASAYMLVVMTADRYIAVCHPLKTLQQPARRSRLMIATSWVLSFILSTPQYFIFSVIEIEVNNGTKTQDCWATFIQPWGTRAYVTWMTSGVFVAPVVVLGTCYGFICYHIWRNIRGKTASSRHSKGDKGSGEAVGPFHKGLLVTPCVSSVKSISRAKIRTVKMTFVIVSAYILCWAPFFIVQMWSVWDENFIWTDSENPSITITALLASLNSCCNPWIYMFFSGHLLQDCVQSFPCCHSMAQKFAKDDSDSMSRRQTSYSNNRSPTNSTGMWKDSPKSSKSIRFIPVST
T2 sequence (Q00788 whole entry): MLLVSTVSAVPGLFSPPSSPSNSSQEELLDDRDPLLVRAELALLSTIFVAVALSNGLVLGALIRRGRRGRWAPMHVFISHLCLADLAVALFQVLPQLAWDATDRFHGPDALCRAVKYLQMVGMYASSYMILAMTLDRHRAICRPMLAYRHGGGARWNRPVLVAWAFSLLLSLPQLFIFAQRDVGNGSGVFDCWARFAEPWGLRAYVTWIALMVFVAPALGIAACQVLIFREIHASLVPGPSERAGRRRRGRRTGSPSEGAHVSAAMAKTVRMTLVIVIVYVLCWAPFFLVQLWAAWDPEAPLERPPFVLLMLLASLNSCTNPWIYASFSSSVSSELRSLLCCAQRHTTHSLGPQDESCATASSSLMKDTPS

Broadly, the IC50 is the concentration that inhibits the measured activity by half. For orientation: AUC(0-inf) means the area under the concentration-time curve extrapolated to infinity. A low value points to less exposure. What is called Cmax is the highest concentration seen after dosing. For orientation: Tmax means the time at which the peak concentration occurs. As for `O=C(Nc1ccc(C(=O)N2CCC(F)(F)[C@](O)(CO)c3cc(Cl)ccc32)cn1)c1cc(F)ccc1Cl` [Example 15, 2-chloro-N-{5-[(5R)-7-chloro-4,4-difluoro-5-hydroxy-5-(hydroxymethyl)-2,3,4,5-tetrahydro-1H-1-benzazepine-1-carbonyl]pyridin-2-yl}-5-fluorobenzamide], the IC50 in data set [1] is 2.9 nM. Further, the IC50 in data set [2] worked out at 1 nM. For the same molecule, the microsomal CLint at 1 μmol/L in data set [3] was less than 4 µL/min/mg. In data set [4], the total exposure AUC(0-inf) was found to be 63100 ng·h/mL, the concentration peaked (Cmax) at 6180 ng/mL and the Tmax came to 1 h.

(Values after patent US11673878B2, “Benzazepine derivatives” (OTSUKA PHARMACEUTICAL CO., LTD., priority 2017, dated 2023).)
